These are literature values, as cited in patent US20160088844A1 (priority 2013, published 2016).

For the series, the system named is roots of plants; seeds of a variety of species. As to conditions: in vivo.

Turning to `Cn1c(=O)c2c(ncn2C)n(C)c1=O` [caffeine], the “mitosis in the roots of plants” value was “inhibit mitosis” and the “seed germination in a variety of species” value was “inhibit seed germination”.
